Experimental data as given in publication PMC12521546 (Nature Communications, 2025).
In brackets after ≈: the same amount, converted by molar mass. Entries after “also recorded” stand apart in the source; their conditions may differ. Read-outs that look alike come from different tables or passages of the source.

How the values were obtained:
CnAcs1 [1] = target: T1, CnAcs1 (Cryptococcus neoformans, UniProt J9VFT1); assay: Acs coupled kinetic pyrophosphate; assay type: biochemical
T1 sequence (J9VFT1 1-680): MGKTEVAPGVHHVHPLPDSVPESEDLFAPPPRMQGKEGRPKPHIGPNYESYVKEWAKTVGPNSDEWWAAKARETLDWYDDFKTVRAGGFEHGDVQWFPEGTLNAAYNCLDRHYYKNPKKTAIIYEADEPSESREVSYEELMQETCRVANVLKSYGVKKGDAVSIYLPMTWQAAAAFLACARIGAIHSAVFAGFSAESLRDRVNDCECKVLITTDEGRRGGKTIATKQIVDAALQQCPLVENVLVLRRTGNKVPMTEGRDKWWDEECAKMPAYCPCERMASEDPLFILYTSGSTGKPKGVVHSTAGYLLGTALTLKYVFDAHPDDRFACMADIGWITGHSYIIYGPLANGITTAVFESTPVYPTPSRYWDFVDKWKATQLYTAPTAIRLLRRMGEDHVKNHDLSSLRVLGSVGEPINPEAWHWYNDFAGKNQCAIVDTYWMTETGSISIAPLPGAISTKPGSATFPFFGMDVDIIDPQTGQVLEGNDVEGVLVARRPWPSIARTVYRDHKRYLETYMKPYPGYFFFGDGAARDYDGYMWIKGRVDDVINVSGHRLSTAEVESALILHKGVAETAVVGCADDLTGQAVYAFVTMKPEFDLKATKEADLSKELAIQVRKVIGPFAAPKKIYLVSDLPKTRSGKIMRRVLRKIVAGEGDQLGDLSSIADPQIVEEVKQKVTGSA

PfAcAS = conditions: cited from earlier work
[2] = tested on: C. neoformans reference strain H99; assay: MIC, modified CLSI micro-broth dilution, H99; assay type: cell-based, Cryptococcus neoformans
Ca^CnAcs2 = target: T2, Ca^CnAcs2 (Candida albicans, UniProt Q8NJN3, A319M/F357Y/G320A/Q430M/V371T); assay: Acs assay, Ca^CnAcs2 mutant enzyme; conditions: for IC50: read-out: IC50 Ca^CnAcs2
T2 sequence (Q8NJN3 with tags, fused parts or gaps A319M/G320A/F357Y/V371T/V388A/Q430M): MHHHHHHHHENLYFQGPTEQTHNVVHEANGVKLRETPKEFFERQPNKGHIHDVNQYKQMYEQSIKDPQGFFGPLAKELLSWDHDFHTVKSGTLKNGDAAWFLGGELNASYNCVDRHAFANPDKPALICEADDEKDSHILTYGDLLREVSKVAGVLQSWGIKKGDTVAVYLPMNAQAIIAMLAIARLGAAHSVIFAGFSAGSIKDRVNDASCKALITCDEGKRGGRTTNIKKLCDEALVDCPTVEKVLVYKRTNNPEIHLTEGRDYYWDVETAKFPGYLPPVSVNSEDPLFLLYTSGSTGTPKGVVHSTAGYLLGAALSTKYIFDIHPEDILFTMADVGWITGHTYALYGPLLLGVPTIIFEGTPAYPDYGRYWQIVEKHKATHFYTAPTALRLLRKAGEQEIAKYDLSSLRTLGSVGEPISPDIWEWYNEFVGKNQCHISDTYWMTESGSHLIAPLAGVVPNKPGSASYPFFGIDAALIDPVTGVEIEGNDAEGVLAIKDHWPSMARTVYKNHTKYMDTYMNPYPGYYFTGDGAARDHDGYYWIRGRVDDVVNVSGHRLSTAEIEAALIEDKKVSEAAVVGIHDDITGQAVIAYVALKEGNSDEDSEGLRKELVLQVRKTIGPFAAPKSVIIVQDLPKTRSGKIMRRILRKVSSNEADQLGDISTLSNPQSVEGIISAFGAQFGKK

CaAcs2 [3] = target: T3, CaAcs2 (Candida albicans, UniProt Q8NJN3); assay: Acs coupled kinetic assay, CaAcs2; assay type: biochemical
T3 sequence (Q8NJN3 1-671): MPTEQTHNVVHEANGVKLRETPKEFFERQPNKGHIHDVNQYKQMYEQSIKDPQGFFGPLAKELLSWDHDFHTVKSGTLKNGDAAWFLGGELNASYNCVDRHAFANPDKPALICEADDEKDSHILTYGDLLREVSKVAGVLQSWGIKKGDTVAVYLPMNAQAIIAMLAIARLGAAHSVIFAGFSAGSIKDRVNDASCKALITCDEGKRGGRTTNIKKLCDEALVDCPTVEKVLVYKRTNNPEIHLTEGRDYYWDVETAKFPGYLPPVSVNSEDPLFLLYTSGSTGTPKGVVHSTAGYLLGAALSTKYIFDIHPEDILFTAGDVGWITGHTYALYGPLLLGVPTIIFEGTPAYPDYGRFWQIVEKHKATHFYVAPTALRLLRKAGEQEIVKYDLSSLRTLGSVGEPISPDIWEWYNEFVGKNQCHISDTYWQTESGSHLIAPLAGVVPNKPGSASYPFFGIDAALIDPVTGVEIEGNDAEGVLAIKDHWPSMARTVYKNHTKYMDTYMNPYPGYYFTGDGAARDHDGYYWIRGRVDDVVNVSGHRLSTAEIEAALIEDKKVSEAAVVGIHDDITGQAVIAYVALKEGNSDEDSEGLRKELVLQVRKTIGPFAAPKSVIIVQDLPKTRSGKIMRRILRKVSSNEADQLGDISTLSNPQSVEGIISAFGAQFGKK

human ACSS2 = human ACSS2 (Homo sapiens, UniProt Q9NR19); assay: Acs coupled kinetic assay, human ACSS2; assay type: biochemical
human ACSS2, sequence (Q9NR19 whole entry): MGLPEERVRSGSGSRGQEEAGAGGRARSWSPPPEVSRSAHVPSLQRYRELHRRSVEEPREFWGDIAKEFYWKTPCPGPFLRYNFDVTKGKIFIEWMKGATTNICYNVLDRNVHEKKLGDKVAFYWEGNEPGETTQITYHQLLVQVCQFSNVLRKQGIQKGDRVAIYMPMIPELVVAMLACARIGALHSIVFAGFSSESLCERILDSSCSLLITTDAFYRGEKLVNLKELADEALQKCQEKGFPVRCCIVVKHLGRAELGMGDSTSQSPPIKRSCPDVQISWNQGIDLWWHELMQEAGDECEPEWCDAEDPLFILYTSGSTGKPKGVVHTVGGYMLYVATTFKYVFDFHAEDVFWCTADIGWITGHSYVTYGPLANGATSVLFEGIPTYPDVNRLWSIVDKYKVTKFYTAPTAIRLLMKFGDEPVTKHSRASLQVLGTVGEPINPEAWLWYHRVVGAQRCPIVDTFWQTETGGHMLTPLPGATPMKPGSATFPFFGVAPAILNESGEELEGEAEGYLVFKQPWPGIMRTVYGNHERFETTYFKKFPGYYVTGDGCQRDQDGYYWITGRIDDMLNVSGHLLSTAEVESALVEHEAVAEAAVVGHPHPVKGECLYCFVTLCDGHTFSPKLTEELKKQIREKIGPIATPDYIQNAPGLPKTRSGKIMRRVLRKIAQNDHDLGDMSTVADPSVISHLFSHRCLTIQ

CnAcs1 [4] = target: T1, CnAcs1; conditions: cited from earlier work; for IC50: read-out: IC50 CnAcs1, alkyl-AMP esters
CaAcs2 [5] = target: T3, CaAcs2; conditions: read-out: IC50 CaAcs2; cited from earlier work

**Q.** Which results are given for CCN(CC)S(=O)(=O)c1ccc(Cl)c(C(=O)Nc2ccc3nc(C)sc3c2)c1 [MMV019721]?
**A.** inhibition of CnAcs1 (in words) (CnAcs1 [1]): did not inhibit CnAcs1 below its solubility limit; also recorded: does not inhibit CnAcs1 at the maximum soluble concentration; also recorded: does not significantly inhibit CnAcs1; kinetic mechanism of PfAcAS inhibition (PfAcAS): competitive with ATP and uncompetitive with CoA; antifungal activity against C. neoformans (in words) [2]: no activity

**Q.** Which results are given for O=C(NNC(=O)c1csnn1)c1ccc(Cl)cc1 [MMV084978]?
**A.** fold higher IC50 toward CnAcs1 than PfAcAS (CnAcs1 [1]): ~ 8 fold; kinetic mechanism of CnAcs1 inhibition (CnAcs1 [1]): uncompetitive; kinetic mechanism of CnAcs1 inhibition (CnAcs1 [1]; listed as MMV089478): uncompetitive inhibitor of CnAcs1; fold higher IC50 toward CnAcs1 than PfAcAS (CnAcs1 [1]; listed as MMV0894978): 8 fold; Ki (CnAcs1 [1]; read-out: Ki with CnAcs1, uncompetitive model, CoA varied): 4.1 µM; maximum inhibition of Ca^CnAcs2 (Ca^CnAcs2): 93%; IC50 (Ca^CnAcs2): 88 ± 21 µM; kinetic mechanism of PfAcAS inhibition (PfAcAS): uncompetitive inhibitor with respect to ATP and CoA; IC50 (PfAcAS; read-out: IC50 PfAcAS): 370 nM; MIC toward C. neoformans ([2]; medium not stated): 64 µg/mL (≈ 226 µM); inhibition of CaAcs2 (in words) (CaAcs2 [3]): did not inhibit CaAcs2; fold higher IC50 toward ACSS2 than PfAcAS (human ACSS2): 50 fold

**Q.** For COC(=O)c1cccc(N2N=C(C)C(C(=O)Nc3cccc(C(C)(F)F)c3)C2=O)c1 (stereo not drawn) [MTB-9655], which “inhibition of CnAcs1 (in words)” value (CnAcs1 [1]) is on record?
**A.** Its value is “no activity against CnAcs1”.

**Q.** With CCCCOP(=O)(O)OCC1OC(n2cnc3c(N)ncnc32)C(O)C1O (stereo not drawn) [butyl] as the compound, how does the “decrease in potency relative to ethyl-AMP” value (CnAcs1 [4]) read?
**A.** The value was greater than 50 fold.

**Q.** For CN(Cc1cccc(-c2ccc(F)cc2)c1)Cc1cc(C2CC2)on1 [compound 3], which “inhibition of CnAcs1 (in words)” value (CnAcs1 [1]) is on record?
**A.** The value was “no activity against CnAcs1”.

**Q.** With CC(C)c1cc(CN(C)C(=O)c2cccc(-c3ccc(F)cc3)c2)no1 [compound 5] as the compound, how does the “inhibition of CnAcs1 (in words)” value (CnAcs1 [1]) read?
**A.** Its value is “eliminated inhibition entirely”.

**Q.** Which “inhibition of CnAcs1 (in words)” value (CnAcs1 [1]) does the source give for Cc1cc(CN(C)C(=O)c2cccc(-c3ccc(F)cc3)c2)no1 [compound 6] here?
**A.** The value was “much less potent than 2”.

**Q.** And the inhibition at 100 µM (CnAcs1 [1]; read-out: inhibition of CnAcs1)?
**A.** Its inhibition at 100 µM is 50%.

**Q.** Which “inhibition of CnAcs1 (in words)” value (CnAcs1 [1]) does the source give for CN(Cc1ccon1)C(=O)c1cccc(-c2ccc(F)cc2)c1 [compound 7] here?
**A.** Its value is “completely inactive”.

**Q.** For O=C(NCc1cc(C2CC2)on1)c1cccc(-c2ccc3c(c2)CCO3)c1 [compound 8], which “inhibition of CnAcs1 (in words)” value (CnAcs1 [1]) is on record?
**A.** The value was “no activity against CnAcs1”.

**Q.** With COc1ccc(-c2cccc(C(=O)N(C)Cc3cc(C4CC4)on3)c2)cc1 [compound 9] as the compound, how does the “inhibition of CnAcs1 (in words)” value (CnAcs1 [1]) read?
**A.** The value was “activity that was similar to 1 and more potent than 2”.

**Q.** Which “inhibition of CnAcs1 (in words)” value (CnAcs1 [1]) does the source give for COc1ccccc1-c1cccc(C(=O)N(C)Cc2cc(C3CC3)on2)c1 [compound 10] here?
**A.** The value was “eliminated activity”.

**Q.** Which “inhibition of CnAcs1 (in words)” value (CnAcs1 [1]) does the source give for CN(Cc1cc(C2CC2)on1)C(=O)c1cccc(-c2ccccc2)c1 [compound 12] here?
**A.** Its value is “no activity”.

**Q.** Which IC50 (CnAcs1 [4]) does the source give for Nc1ncnc2c1ncn2[C@@H]1O[C@H](COP(=O)(O)OC2CC2)[C@@H](O)[C@H]1O [cyclopropyl-AMP ester] here?
**A.** Its IC50 is 9 µM.

**Q.** For CCOP(=O)(O)OC[C@H]1O[C@@H](n2cnc3c(N)ncnc32)[C@H](O)[C@@H]1O [ethyl-AMP], which IC50 (Ca^CnAcs2) is on record?
**A.** Its IC50 is 19 ± 7 µM.

**Q.** What about the IC50 (CaAcs2 [5]) of the same compound?
**A.** Its IC50 is 11 ± 5 µM.

**Q.** And the IC50 (CnAcs1 [4])?
**A.** The IC50 was 8 µM.

**Q.** With CC(C)OP(=O)(O)OCC1OC(n2cnc3c(N)ncnc32)C(O)C1O (stereo not drawn) [isopropyl-AMP ester] as the compound, how does the “inhibition of CnAcs1 (in words)” value (CnAcs1 [1]) read?
**A.** The value was “equivalent to that of the cyclopropyl-AMP ester”.

**Q.** With COP(=O)(O)OCC1OC(n2cnc3c(N)ncnc32)C(O)C1O (stereo not drawn) [methyl-AMP ester] as the compound, how does the “inhibition of CnAcs1 (in words)” value (CnAcs1 [1]) read?
**A.** The value was “completely inactive”.

**Q.** Which “decrease in potency relative to ethyl-AMP” value (CnAcs1 [4]) does the source give for CCCOP(=O)(O)OC[C@H]1O[C@@H](n2cnc3c(N)ncnc32)[C@H](O)[C@@H]1O [propyl] here?
**A.** Its value is 3 fold.
